In the NIST ThermoML archive (doi:10.1021/je5002686):
“And” between values parts separate entries of the source, which are not always exact repeats. Equal values may be shown once.

Conditions: Liquid, Vibrating tube method

CCOC(F)(C(F)(F)C(F)(F)C(F)(F)F)C(F)(C(F)(F)F)C(F)(F)F (centres undefined) [2-trifluoromethyl-3-ethoxydodecafluorohexane]
mass density
Conditions	270 K	290 K	310 K	330 K	350 K
490 kPa	1678.1 kg/m3	1637.9 kg/m3	1597.2 kg/m3	1555.1 kg/m3	–
500 kPa	1678.3 kg/m3	1638.1 kg/m3 and 1638.2 kg/m3	1597.2 kg/m3 and 1597.5 kg/m3	1555.2 kg/m3 and 1555 kg/m3	1511.4 kg/m3 and 1511.5 kg/m3
510 kPa	–	–	–	–	1511.6 kg/m3
990 kPa	1679.2 kg/m3 and 1679.3 kg/m3	1639.4 kg/m3 and 1639.5 kg/m3	1598.7 kg/m3	–	1513.6 kg/m3
1000 kPa	1679.2 kg/m3	1639.2 kg/m3	1598.7 kg/m3 and 1599 kg/m3	1556.9 kg/m3 and 1556.7 kg/m3	1513.7 kg/m3 and 1513.5 kg/m3
1990 kPa	1681.3 kg/m3	1641.9 kg/m3	–	1560.4 kg/m3	1517.8 kg/m3
2000 kPa	1681.5 kg/m3	1641.7 kg/m3 and 1642 kg/m3	1601.6 kg/m3 and 1601.9 kg/m3	1560.2 kg/m3 and 1560.3 kg/m3	1517.6 kg/m3 and 1517.8 kg/m3
2990 kPa	–	1644.4 kg/m3	1604.8 kg/m3	1563.6 kg/m3	1521.8 kg/m3
3000 kPa	1683.4 kg/m3	1644.3 kg/m3 and 1644.1 kg/m3	1604.5 kg/m3 and 1604.4 kg/m3	1563.8 kg/m3 and 1563.7 kg/m3	1521.9 kg/m3 and 1521.7 kg/m3
3010 kPa	1683.6 kg/m3	–	–	–	–
3990 kPa	1685.5 kg/m3	1646.7 kg/m3 and 1646.5 kg/m3	1607.3 kg/m3	1567 kg/m3	–
4000 kPa	1685.6 kg/m3	1646.8 kg/m3	1607.2 kg/m3 and 1607.6 kg/m3	1567.1 kg/m3 and 1566.9 kg/m3	1525.8 kg/m3 and 1525.6 kg/m3 and 1525.7 kg/m3
4990 kPa	1687.5 kg/m3	1649.1 kg/m3	1609.9 kg/m3	1570.2 kg/m3	1529.4 kg/m3
5000 kPa	1687.7 kg/m3 and 1687.5 kg/m3	1648.9 kg/m3 and 1649.2 kg/m3	1610 kg/m3	1570.3 kg/m3 and 1570.1 kg/m3	1529.6 kg/m3 and 1529.5 kg/m3
5010 kPa	–	–	1610.3 kg/m3	–	–
9990 kPa	1697.3 kg/m3	1660.3 kg/m3 and 1660.1 kg/m3 and 1660.4 kg/m3	–	1585.3 kg/m3	1547.1 kg/m3
10000 kPa	1697.3 kg/m3 and 1697.4 kg/m3	–	1622.9 kg/m3 and 1623.3 kg/m3 and 1623 kg/m3	1585.1 kg/m3 and 1585.2 kg/m3	1546.9 kg/m3 and 1547 kg/m3
14990 kPa	1706.5 kg/m3	–	–	–	–
15000 kPa	1706.5 kg/m3 and 1706.6 kg/m3	1670.8 kg/m3 and 1670.6 kg/m3	1634.8 kg/m3 and 1635.2 kg/m3 and 1634.9 kg/m3	1598.9 kg/m3 and 1598.7 kg/m3 and 1598.8 kg/m3	1562.7 kg/m3 and 1562.5 kg/m3 and 1562.6 kg/m3
19990 kPa	–	1680.5 kg/m3 and 1680.3 kg/m3	1645.8 kg/m3 and 1645.9 kg/m3	1611.3 kg/m3 and 1611.2 kg/m3	1576.5 kg/m3 and 1576.6 kg/m3
20000 kPa	1715.1 kg/m3 and 1715.2 kg/m3	1680.6 kg/m3	1646.2 kg/m3	1611.2 kg/m3	1576.8 kg/m3
24990 kPa	1723.4 kg/m3	–	–	–	1589.6 kg/m3 and 1589.4 kg/m3 and 1589.5 kg/m3
25000 kPa	1723.3 kg/m3 and 1723.5 kg/m3	1689.7 kg/m3 and 1689.5 kg/m3	1656.1 kg/m3	1622.9 kg/m3 and 1622.6 kg/m3 and 1622.7 kg/m3	–
25010 kPa	–	–	1656.5 kg/m3 and 1656.2 kg/m3	–	–
29990 kPa	1731.3 kg/m3	–	1665.8 kg/m3	1633.5 kg/m3	1601.3 kg/m3
30000 kPa	1731.1 kg/m3 and 1731.2 kg/m3	1698.4 kg/m3	1666.2 kg/m3	1633.4 kg/m3 and 1633.5 kg/m3	1601.5 kg/m3 and 1601.4 kg/m3
30010 kPa	–	1698.3 kg/m3	1665.7 kg/m3	–	–
34990 kPa	1738.7 kg/m3	1706.7 kg/m3	1674.8 kg/m3	1643.6 kg/m3 and 1643.5 kg/m3	1612.3 kg/m3 and 1612.4 kg/m3
35000 kPa	1738.6 kg/m3 and 1738.7 kg/m3	1706.5 kg/m3	1674.9 kg/m3	1643.4 kg/m3	1612.6 kg/m3
35010 kPa	–	1706.7 kg/m3	1675.3 kg/m3	–	–
40000 kPa	1745.7 kg/m3 and 1745.8 kg/m3 and 1745.9 kg/m3	1714.6 kg/m3 and 1714.4 kg/m3 and 1714.5 kg/m3	1683.5 kg/m3 and 1683.9 kg/m3 and 1683.6 kg/m3	1653.1 kg/m3 and 1652.8 kg/m3 and 1652.9 kg/m3	–
44990 kPa	1752.7 kg/m3	1722.1 kg/m3	–	1661.8 kg/m3 and 1661.9 kg/m3	–
45000 kPa	1752.6 kg/m3	1721.9 kg/m3 and 1722.1 kg/m3	1691.7 kg/m3 and 1692.2 kg/m3 and 1691.8 kg/m3	1662 kg/m3	–
49930 kPa	–	1729.2 kg/m3	–	–	–
49940 kPa	–	1729.1 kg/m3	–	–	–
49950 kPa	–	1729 kg/m3	–	–	–
49960 kPa	1759.2 kg/m3	–	–	–	–
49970 kPa	1759.2 kg/m3	–	1699.6 kg/m3	–	–
49980 kPa	–	–	–	1670.4 kg/m3	–
49990 kPa	–	–	–	1670.3 kg/m3	–
50000 kPa	1759.4 kg/m3	–	–	–	–
50010 kPa	–	–	1699.6 kg/m3	1670.6 kg/m3	–
50050 kPa	–	–	1700.1 kg/m3	–	–
